Measurements: patent publication US10968178B2, “IP6K inhibitors” (TAKEDA PHARMACEUTICAL COMPANY LIMITED, priority 2017, dated 2021)

Assays:
Assay type in all cases: biochemical
human IP6K1 = molecular target: T1, human IP6K1 (Homo sapiens, UniProt Q92551); assay: IP6K enzyme inhibitory assay (ADP-Glo Kinase Assay), human IP6K1; details: compound concentration 0.1 μM; read-out: ADP-Glo method inhibitory rate (%) human IP6K1
T1 construct: human IP6K1 (1-441) gene; GST; made in house; host or cells: Sf-9 insect cells
T1 sequence (Q92551 whole entry): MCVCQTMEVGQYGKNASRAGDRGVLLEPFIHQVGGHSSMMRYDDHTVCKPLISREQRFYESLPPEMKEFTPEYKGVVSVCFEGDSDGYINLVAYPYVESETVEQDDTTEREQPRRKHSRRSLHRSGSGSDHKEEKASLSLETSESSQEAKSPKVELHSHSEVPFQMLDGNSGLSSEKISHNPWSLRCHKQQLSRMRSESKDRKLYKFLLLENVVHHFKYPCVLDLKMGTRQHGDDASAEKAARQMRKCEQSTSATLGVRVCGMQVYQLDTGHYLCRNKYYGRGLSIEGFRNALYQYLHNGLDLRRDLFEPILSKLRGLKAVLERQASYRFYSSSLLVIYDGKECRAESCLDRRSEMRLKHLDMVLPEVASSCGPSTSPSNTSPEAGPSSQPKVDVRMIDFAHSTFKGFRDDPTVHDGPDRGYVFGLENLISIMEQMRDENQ
Method in brief: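 Inhibition of human IP6K1 was determined with Promega's ADP-Glo Kinase Assay in 384 well plates. Test compound diluted in assay buffer (20 mM HEPES (pH 7.5), 6 mM MgCl2, 0.01% Tween-20, 1 mM DTT) was added at 2 μL, then 2 μL of enzyme started the reaction for 60 min at room temperature. Next came 3 μL ADP-Glo solution for 30 min and 6 μL Kinase-Detection solution for 60 min. Luminescence was read on an Envision plate reader.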

human IP6K2 = molecular target: T2, human IP6K2 (Homo sapiens, UniProt Q9UHH9); assay: IP6K enzyme inhibitory assay (ADP-Glo Kinase Assay), human IP6K2; details: compound concentration 0.1 μM; read-out: ADP-Glo method inhibitory rate (%) human IP6K2
T2 construct: human IP6K2 (1-426) gene; GST; made in house; host or cells: Sf-9 insect cells
T2 sequence (Q9UHH9 1-426): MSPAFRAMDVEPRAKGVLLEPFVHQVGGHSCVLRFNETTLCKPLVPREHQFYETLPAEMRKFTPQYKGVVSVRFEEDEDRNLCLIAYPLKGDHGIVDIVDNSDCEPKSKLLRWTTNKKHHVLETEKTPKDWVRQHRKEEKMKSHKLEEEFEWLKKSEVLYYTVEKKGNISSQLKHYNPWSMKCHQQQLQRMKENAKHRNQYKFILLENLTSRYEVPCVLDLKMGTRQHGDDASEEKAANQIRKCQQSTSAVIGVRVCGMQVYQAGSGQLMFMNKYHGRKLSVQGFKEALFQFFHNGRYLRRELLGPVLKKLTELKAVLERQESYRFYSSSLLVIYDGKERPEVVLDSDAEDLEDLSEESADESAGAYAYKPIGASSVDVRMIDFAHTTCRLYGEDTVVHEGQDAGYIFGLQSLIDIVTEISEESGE
Method in brief: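 The inhibitory activity against human IP6K2 was measured with Promega's ADP-Glo Kinase Assay in 384 well plates. Test compound, diluted in assay buffer (20 mM HEPES (pH 7.5), 6 mM MgCl2, 0.01% Tween-20, 1 mM DTT), was added at 2 μL. Adding 2 μL of diluted enzyme started the reaction, which ran for 60 min at room temperature. Next, 3 μL ADP-Glo solution (30 min) and 6 μL Kinase-Detection solution (60 min) were added, and luminescence was read on an Envision plate reader.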

human IP6K3 = molecular target: T3, human IP6K3 (Homo sapiens, UniProt Q96PC2); assay: IP6K enzyme inhibitory assay (ADP-Glo Kinase Assay), human IP6K3; details: compound concentration 0.1 μM; read-out: ADP-Glo method inhibitory rate (%) human IP6K3
T3 construct: human IP6K3 (1-410) gene; made in house; host or cells: BL21 (DE3) Escherichia coli
T3 sequence (Q96PC2 1-410): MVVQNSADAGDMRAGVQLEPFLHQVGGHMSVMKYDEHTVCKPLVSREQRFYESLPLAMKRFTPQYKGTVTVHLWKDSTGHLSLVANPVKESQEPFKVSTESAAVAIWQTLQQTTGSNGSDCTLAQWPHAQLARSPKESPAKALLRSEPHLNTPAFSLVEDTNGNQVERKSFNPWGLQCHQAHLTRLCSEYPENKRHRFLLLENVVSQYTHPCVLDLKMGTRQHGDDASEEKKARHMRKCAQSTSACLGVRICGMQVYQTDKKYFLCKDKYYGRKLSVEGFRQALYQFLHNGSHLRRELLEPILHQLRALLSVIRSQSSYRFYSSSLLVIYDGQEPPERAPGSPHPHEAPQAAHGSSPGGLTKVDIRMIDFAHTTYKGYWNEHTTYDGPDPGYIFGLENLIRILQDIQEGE
Method in brief: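 Recombinant human IP6K (IP6K3 residues 1-410, E. coli, Ni-NTA purified) incubated with compound in 20 mM HEPES pH 7.5, 6 mM MgCl2, 0.01% Tween-20, 1 mM DTT for 60 min at room temperature. ADP formed read as luminescence by ADP-Glo.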

Row | Structure (SMILES) | inhibition at 0.1 µM (human IP6K1) [%] | inhibition at 0.1 µM (human IP6K2) [%] | inhibition at 0.1 µM (human IP6K3) [%]
1 | O=C(O)c1ccc2c(c1)[C@]1(CC[C@@H](Oc3cc(F)ccc3Cl)CC1)C(=O)N2 [Example 65, (1r,4r)-4-(2-chloro-5-fluorophenoxy)-2′-oxo-1′,2′-dihydrospiro[cyclohexane-1,3′-indole]-5′-carboxylic acid] | 93 | 95 | 97
2 | O=C(O)c1ccc2c(c1)[C@]1(CC[C@@H](Oc3ccc(Cl)cc3F)CC1)C(=O)N2 [Example 66, (1r,4r)-4-(4-chloro-2-fluorophenoxy)-2′-oxo-1′,2′-dihydrospiro[cyclohexane-1,3′-indole]-5′-carboxylic acid] | 99 | 100 | 96
3 | O=C(O)c1ccc2c(c1)[C@]1(CC[C@@H](Oc3ccc(F)c(Cl)c3)CC1)C(=O)N2 [Example 67, (1r,4r)-4-(3-chloro-4-fluorophenoxy)-2′-oxo-1′,2′-dihydrospiro[cyclohexane-1,3′-indole]-5′-carboxylic acid] | 93 | 98 | 97
4 | O=C(O)c1ccc2c(c1)[C@]1(CC[C@@H](Oc3ccc(F)cc3Cl)CC1)C(=O)N2 [Example 68, (1r,4r)-4-(2-chloro-4-fluorophenoxy)-2′-oxo-1′,2′-dihydrospiro[cyclohexane-1,3′-indole]-5′-carboxylic acid] | 93 | 98 | 98
5 | O=C(O)c1ccc2c(c1)[C@]1(CC[C@@H](Oc3ccc(Cl)c(F)c3)CC1)C(=O)N2 [Example 69, (1r,4r)-4-(4-chloro-3-fluorophenoxy)-2′-oxo-1′,2′-dihydrospiro[cyclohexane-1,3′-indole]-5′-carboxylic acid] | 100 | 100 | 96
6 | COc1ccc(O[C@H]2CC[C@@]3(CC2)C(=O)Nc2ccc(C(=O)O)cc23)c(C#N)c1 [Example 70, (1r,4r)-4-(2-cyano-4-methoxyphenoxy)-2′-oxo-1′,2′-dihydrospiro[cyclohexane-1,3′-indole]-5′-carboxylic acid] | 99 | 99 | 99
7 | N#Cc1cc(O[C@H]2CC[C@@]3(CC2)C(=O)Nc2ccc(C(=O)O)cc23)ccc1Cl [Example 71, (1r,4r)-4-(4-chloro-3-cyanophenoxy)-2′-oxo-1′,2′-dihydrospiro[cyclohexane-1,3′-indole]-5′-carboxylic acid] | 88 | 90 | 95
8 | N#Cc1ccc(O[C@H]2CC[C@@]3(CC2)C(=O)Nc2ccc(C(=O)O)cc23)c(Cl)c1 [Example 72, (1r,4r)-4-(2-chloro-4-cyanophenoxy)-2′-oxo-1′,2′-dihydrospiro[cyclohexane-1,3′-indole]-5′-carboxylic acid] | 99 | 97 | 97
9 | N#Cc1ccc(O[C@H]2CC[C@@]3(CC2)C(=O)Nc2ccc(C(=O)O)cc23)cc1Cl [Example 73, (1r,4r)-4-(3-chloro-4-cyanophenoxy)-2′-oxo-1′,2′-dihydrospiro[cyclohexane-1,3′-indole]-5′-carboxylic acid] | 98 | 97 | 91
10 | O=C(O)c1ccc2c(c1)[C@]1(CC[C@@H](Oc3ccccc3C(F)(F)F)CC1)C(=O)N2 [Example 74, (1r,4r)-2′-oxo-4-(2-(trifluoromethyl)phenoxy)-1′,2′-dihydrospiro[cyclohexane-1,3′-indole]-5′-carboxylic acid] | 93 | 92 | 92
11 | O=C(O)c1ccc2c(c1)[C@]1(CC[C@@H](Oc3cccc(C(F)(F)F)c3)CC1)C(=O)N2 [Example 75, (1r,4r)-2′-oxo-4-(3-(trifluoromethyl)phenoxy)-1′,2′-dihydrospiro[cyclohexane-1,3′-indole]-5′-carboxylic acid] | 89 | 94 | 89
12 | O=C(O)c1ccc2c(c1)[C@]1(CC[C@@H](Oc3cc(F)cc(C(F)(F)F)c3)CC1)C(=O)N2 [Example 76, (1r,4r)-4-(3-fluoro-5-(trifluoromethyl)phenoxy)-2′-oxo-1′,2′-dihydrospiro[cyclohexane-1,3′-indole]-5′-carboxylic acid] | 81 | 86 | 86
13 | O=C(O)c1ccc2c(c1)[C@]1(CC[C@@H](Oc3cccc(C(F)(F)F)c3F)CC1)C(=O)N2 [Example 77, (1r,4r)-4-(2-fluoro-3-(trifluoromethyl)phenoxy)-2′-oxo-1′,2′-dihydrospiro[cyclohexane-1,3′-indole]-5′-carboxylic acid] | 94 | 99 | 98
14 | O=C(O)c1ccc2c(c1)[C@]1(CC[C@@H](Oc3cc(C(F)(F)F)ccc3F)CC1)C(=O)N2 [Example 78, (1r,4r)-4-(2-fluoro-5-(trifluoromethyl)phenoxy)-2′-oxo-1′,2′-dihydrospiro[cyclohexane-1,3′-indole]-5′-carboxylic acid] | 96 | 96 | 98
15 | O=C(O)c1ccc2c(c1)[C@]1(CC[C@@H](Oc3ccc(F)c(C(F)(F)F)c3)CC1)C(=O)N2 [Example 79, (1r,4r)-4-(4-fluoro-3-(trifluoromethyl)phenoxy)-2′-oxo-1′,2′-dihydrospiro[cyclohexane-1,3′-indole]-5′-carboxylic acid] | 87 | 89 | 97
16 | Cn1nc(O[C@H]2CC[C@@]3(CC2)C(=O)Nc2ccc(C(=O)O)cc23)cc1C(F)(F)F [Example 80, (1r,4r)-4-((1-methyl-5-(trifluoromethyl)-1H-pyrazol-3-yl)oxy)-2′-oxo-1′,2′-dihydrospiro[cyclohexane-1,3′-indole]-5′-carboxylic acid] | 62 | 82 | 89
17 | Cc1cc(Cl)cnc1O[C@H]1CC[C@]2(CC1)C(=O)Nc1ccc(C(=O)O)nc12 [Example 81, (1s,4s)-4-((5-chloro-3-methylpyridin-2-yl)oxy)-2′-oxo-1′,2′-dihydrospiro[cyclohexane-1,3′-pyrrolo[3,2-b]pyridine]-5′-carboxylic acid] | 96 | 100 | 100
18 | COc1cc(Cl)ccc1O[C@H]1CC[C@@]2(CC1)C(=O)Nc1ccc(C(=O)O)cc12 [Example 82, (1r,4r)-4-(4-chloro-2-methoxyphenoxy)-2′-oxo-1′,2′-dihydrospiro[cyclohexane-1,3′-indole]-5′-carboxylic acid] | 98 | 101 | 99
19 | COc1cc(Cl)ccc1O[C@H]1CC[C@]2(CC1)C(=O)Nc1ccc(C(=O)O)cc12 [Example 83, (1s,4s)-4-(4-chloro-2-methoxyphenoxy)-2′-oxo-1′,2′-dihydrospiro[cyclohexane-1,3′-indole]-5′-carboxylic acid] | 97 | 100 | 102
